Results published in BindingDB's records for doi:10.1021/jm050004k (Karo Bio, 2005).

Columns and labels:
[1] = molecular target: T1, Thyroid hormone receptor alpha (Homo sapiens, UniProt P10827); assay: TRalpha-Binding Assay and Thyroid Response Element (TRAFalpha1) Reporter Assay.; conditions: pH 7; 4 °C
T1 sequence (P10827 whole entry): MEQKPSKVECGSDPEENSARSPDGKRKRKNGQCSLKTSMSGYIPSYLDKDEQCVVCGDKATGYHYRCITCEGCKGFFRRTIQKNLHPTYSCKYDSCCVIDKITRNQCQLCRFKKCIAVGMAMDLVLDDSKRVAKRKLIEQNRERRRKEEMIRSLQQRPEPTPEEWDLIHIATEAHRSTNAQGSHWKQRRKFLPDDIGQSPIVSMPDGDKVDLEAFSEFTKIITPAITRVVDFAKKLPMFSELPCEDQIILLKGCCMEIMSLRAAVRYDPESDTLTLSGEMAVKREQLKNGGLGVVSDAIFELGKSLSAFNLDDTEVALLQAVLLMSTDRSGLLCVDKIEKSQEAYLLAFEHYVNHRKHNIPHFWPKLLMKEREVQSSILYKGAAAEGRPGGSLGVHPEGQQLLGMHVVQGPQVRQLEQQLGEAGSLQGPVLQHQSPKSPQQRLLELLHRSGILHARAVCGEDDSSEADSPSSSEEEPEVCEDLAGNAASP
Text: IIC50 is the concentration of each compound required to inhibit 50% binding of 125I-T3 to hTRalpha. EC50 is the concentration of compound required to inhibit 50% of T3-induced TRalpha-activation in CHOK1 cells stably transfected with hTRalpha using alkaline phosphatase reporter assay.

[2] = molecular target: T2, Thyroid hormone receptor beta (Homo sapiens, UniProt P10828); assay: TRbeta-Binding Assay and Thyroid Response Element (TRAFbeta1) Reporter Assay.; conditions: pH 7; 4 °C
T2 sequence (P10828 whole entry): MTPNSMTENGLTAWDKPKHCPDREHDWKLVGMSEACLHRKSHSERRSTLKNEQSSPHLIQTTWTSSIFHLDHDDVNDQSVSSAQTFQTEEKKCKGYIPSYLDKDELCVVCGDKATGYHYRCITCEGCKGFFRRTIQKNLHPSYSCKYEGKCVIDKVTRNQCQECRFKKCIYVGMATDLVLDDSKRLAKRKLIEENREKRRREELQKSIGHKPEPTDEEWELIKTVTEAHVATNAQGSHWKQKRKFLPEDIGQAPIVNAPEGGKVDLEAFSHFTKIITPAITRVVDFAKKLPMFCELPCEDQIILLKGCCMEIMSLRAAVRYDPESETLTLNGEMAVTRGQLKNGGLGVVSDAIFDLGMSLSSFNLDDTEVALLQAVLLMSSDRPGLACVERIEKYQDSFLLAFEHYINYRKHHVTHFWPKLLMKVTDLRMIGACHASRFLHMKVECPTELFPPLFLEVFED
Text: IC50 is the concentration of each compound required to inhibit 50% binding of 125I-T3 to hTRbeta. EC50 is the concentration of compound required to inhibit 50% of T3-induced TRbeta-activation in CHOK1 cells stably transfected with hTRbeta using alkaline phosphatase reporter assay.

| Structure (SMILES) | EC50 [1] [nM] | EC50 [2] [nM] | IC50 [2] [nM] |
| --- | --- | --- | --- |
| CCC(CC)COc1c(Br)cc(CC(=O)O)cc1Br [2-[3,5-dibromo-4-(2-ethylbutoxy)phenyl]acetic acid] | 0.82 | 0.7 | – |
| CC(C)CCOc1c(Br)cc(CC(=O)O)cc1Br [2-[3,5-dibromo-4-(3-methylbutoxy)phenyl]acetic acid] | – | – | 1800 |
| O=C(O)Cc1cc(Br)c(OCC2CCCCC2)c(Br)c1 [2-[3,5-dibromo-4-(cyclohexylmethoxy)phenyl]acetic acid] | 0.42 | 0.52 | – |
| CCCCCCOc1c(Br)cc(CC(=O)O)cc1Br [2-[3,5-dibromo-4-(hexyloxy)phenyl]acetic acid] | 0.7 | 0.8 | – |
| CCCCCCOc1c(Br)cc(CCC(=O)O)cc1Br [3-[3,5-dibromo-4-(hexyloxy)phenyl]propanoic acid] | 0.6 | 1 | – |
| O=C(O)CCc1cc(Br)c(OCC2CCCCC2)c(Br)c1 [JMC496635 Compound 9] | 0.53 | 0.12 | – |
